Patent US20240043427A1 (Gilead Sciences, Inc., priority 2020, published 2024)
Values joined by “and” are separate entries in the source; they are usually repeats but may differ in a detail not shown here. Identical values can stand only once. Like-named read-outs stand apart in the source and are kept apart here.

Assays:
[1] = target: T1, CD73 (Homo sapiens (Human), UniProt P21589); test: MDA-MB-231 Cell Based CD73 Activity Assay (DMEM); settings: MDA-MB-231-GFP cells, DMEM medium with 10% human plasma, 200 uM AMP
[2] = target: T1, CD73; test: CD73 Biochemical IC50 Assay; settings: CD73 0.3 nM, AMP 15 uM, 25 mM Tris pH 7.4, 5 mM MgCl2
Protocol: CD73 Biochemical IC50 Assay
Compound serial dilutions were pre-spotted into Thermo Nunc assay plate. 50 μL CD73 enzyme buffer (CD73 purchased from R&D system=0.6 nM, 25 mM Tris, pH 7.4, 5 mM MgCl2) was added into the assay plate and incubated for 15 mins. […] The samples were run using Rapid fire.

[3] = target: T1, CD73; test: MDA-MB-231 Cell Based CD73 Activity Assay; settings: MDA-MB-231-GFP cells, RPMI medium with 10% human plasma, 200 uM AMP
[4] = target: T1, CD73; assay type: biochemical; settings: 1 mM NaH2PO4 in enzyme buffer, CD73 0.3 nM, AMP 15 uM

T1 sequence (P21589 27-574): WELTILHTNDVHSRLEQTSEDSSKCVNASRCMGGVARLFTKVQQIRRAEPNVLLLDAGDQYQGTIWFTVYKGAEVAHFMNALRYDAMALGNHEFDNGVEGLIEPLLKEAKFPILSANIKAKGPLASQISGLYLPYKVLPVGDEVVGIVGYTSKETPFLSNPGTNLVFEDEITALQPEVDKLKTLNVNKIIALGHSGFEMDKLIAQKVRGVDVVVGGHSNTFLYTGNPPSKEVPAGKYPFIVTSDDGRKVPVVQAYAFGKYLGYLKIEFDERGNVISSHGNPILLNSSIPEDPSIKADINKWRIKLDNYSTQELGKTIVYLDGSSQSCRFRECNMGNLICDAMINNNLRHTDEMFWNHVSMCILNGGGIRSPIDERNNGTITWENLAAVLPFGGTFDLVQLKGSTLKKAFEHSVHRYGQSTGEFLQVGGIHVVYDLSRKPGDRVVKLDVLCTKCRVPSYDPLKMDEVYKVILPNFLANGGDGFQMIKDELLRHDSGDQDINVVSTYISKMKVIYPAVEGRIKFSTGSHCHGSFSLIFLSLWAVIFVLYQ

O=c1[nH]cc(-c2cc([C@H]3C[C@@H]3c3ccccc3)c3nccn3n2)c(=O)[nH]1 (racemic) [Example 7, 5-(8-((1S,2S)-2-phenylcyclopropyl)imidazo[1,2-b]pyridazin-6-yl)pyrimidine-2,4-(1H,3H)-dione and 5-(8-((1R,2R)-2-phenylcyclopropyl)imidazo[1,2-b]pyridazin-6-yl)pyrimidine-2,4-(1H,3H)-dione]
EC50 [1]: 4.15 nM
IC50 [2]: 13.6 nM and 13 nM
EC50 [3]: 2.08 nM and 1.88 nM
IC50 [4]: 0.94 nM

O=c1[nH]cc(-c2cc(N3C[C@H](F)[C@@H](F)C3)c3nccn3n2)c(=O)[nH]1 (racemic) [Example 73, 5-[8-[(3S,4S)-3,4-difluoropyrrolidin-1-yl]imidazo[1,2-b]pyridazin-6-yl]-1H-pyrimidine-2,4-dione and 5-[8-[(3R,4R)-3,4-difluoropyrrolidin-1-yl]imidazo[1,2-b]pyridazin-6-yl]-1H-pyrimidine-2,4-dione]
EC50 [1]: 31.7 nM
IC50 [2]: 39.7 nM
EC50 [3]: 17.4 nM
IC50 [4]: 9.87 nM

N#Cc1cc(F)cc([C@H]2C[C@@H]2c2cc(-c3c[nH]c(=O)[nH]c3=O)nn3ccnc23)c1 (racemic) [Example 85, 3-[(1S,2S)-2-[6-(2,4-dioxo-1H-pyrimidin-5-yl)imidazo[1,2-b]pyridazin-8-yl]cyclopropyl]-5-fluoro-benzonitrile and 3-[(1R,2R)-2-[6-(2,4-dioxo-1H-pyrimidin-5-yl)imidazo[1,2-b]pyridazin-8-yl]cyclopropyl]-5-fluoro-benzonitrile]
EC50 [1]: 17.7 nM
IC50 [2]: 43.3 nM
EC50 [3]: 6.08 nM
IC50 [4]: 1.34 nM

O=c1[nH]cc(-c2cc([C@H]3C[C@@H]3c3ccc(F)cc3)c3nc(C4CC4)cn3n2)c(=O)[nH]1 (racemic) [Example 86, 5-[2-cyclopropyl-8-[(1S,2S)-2-(4-fluorophenyl)cyclopropyl]imidazo[1,2-b]pyridazin-6-yl]-1H-pyrimidine-2,4-dione and 5-[2-cyclopropyl-8-[(1R,2R)-2-(4-fluorophenyl)cyclopropyl]imidazo[1,2-b]pyridazin-6-yl]-1H-pyrimidine-2,4-dione]
EC50 [1]: 16.6 nM
IC50 [2]: 152 nM
EC50 [3]: 21.8 nM
IC50 [4]: 5.66 nM

O=c1[nH]cc(-c2cc([C@H]3C[C@@H]3c3ccc(Cl)c(F)c3)c3nccn3n2)c(=O)[nH]1 (racemic) [Example 98, 5-(8-((1S,2S)-2-(4-chloro-3-fluorophenyl)cyclopropyl)imidazo[1,2-b]pyridazin-6-yl)pyrimidine-2,4(1H,3H)-dione and 5-(8-((1R,2R)-2-(4-chloro-3-fluorophenyl)cyclopropyl)imidazo[1,2-b]pyridazin-6-yl)pyrimidine-2,4(1H,3H)-dione]
EC50 [1]: 17.7 nM
IC50 [2]: 16.4 nM
EC50 [3]: 7.23 nM
IC50 [4]: 2 nM

O=c1[nH]cc(-c2cc([C@H]3C[C@@H]3c3ccc4c(c3)OC(F)(F)O4)c3nccn3n2)c(=O)[nH]1 (racemic) [Example 110, 5-(8-((1S,2S)-2-(2,2-difluorobenzo[d][1,3]dioxol-5-yl)cyclopropyl)imidazo[1,2-b]pyridazin-6-yl)pyrimidine-2,4(1H,3H)-dione and 5-(8-41R,2R)-2-(2,2-difluorobenzo[d][1,3]dioxol-5-yl)cyclopropyl)imidazo[1,2-b]pyridazin-6-yl)pyrimidine-2,4(1H,3H)-dione]
EC50 [1]: 28.7 nM
IC50 [2]: 31.4 nM
EC50 [3]: 7.5 nM
IC50 [4]: 2.96 nM

N#Cc1ccc([C@H]2C[C@@H]2c2cc(-c3c[nH]c(=O)[nH]c3=O)nn3ccnc23)cc1F (racemic) [Example 115, 4-((1S,2S)-2-(6-(2,4-dioxo-1,2,3,4-tetrahydropyrimidin-5-yl)imidazo[1,2-b]pyridazin-8-yl)cyclopropyl)-2-fluorobenzonitrile]
EC50 [1]: 12.9 nM
IC50 [2]: 13.3 nM
EC50 [3]: 4.21 nM
IC50 [4]: 1.77 nM

O=c1[nH]cc(-c2cc(N3CCC(c4ccc(F)cc4)C3)c3nccn3n2)c(=O)[nH]1 (stereo in doubt) [Example 67, 5-[8-[(3R)-3-(4-fluorophenyl)pyrrolidin-1-yl]imidazo[1,2-b]pyridazin-6-yl]-1H-pyrimidine-2,4-dione]
EC50 [1]: 30.3 nM
IC50 [2]: 30.1 nM
EC50 [3]: 14.3 nM
IC50 [4]: 4.83 nM

O=c1[nH]cc(-c2cc(N3CCCC3)c3nccn3n2)c(=O)[nH]1 [Example 9, 5-(8-pyrrolidin-1-ylimidazo[1,2-b]pyridazin-6-yl)-1H-pyrimidine-2,4-dione]
EC50 [1]: 58.8 nM
IC50 [2]: 106 nM
EC50 [3]: 29.1 nM
IC50 [4]: 19.4 nM

O=c1[nH]cc(-c2cc(C3CC3)c3nccn3n2)c(=O)[nH]1 [Example 22, 5-(8-cyclopropylimidazo[1,2-b]pyridazin-6-yl)pyrimidine-2,4(1H,3H)-dione]
EC50 [1]: 104 nM
IC50 [2]: 55.8 nM and 64.9 nM
EC50 [3]: 46.3 nM and 45.1 nM
IC50 [4]: 35.5 nM

O=c1[nH]cc(-c2cc(N3CC(C(F)(F)F)C3)c3nccn3n2)c(=O)[nH]1 [Example 62, 5-(8-(3-(trifluoromethyl)azetidin-1-yl)imidazo[1,2-b]pyridazin-6-yl)pyrimidine-2,4(1H,3H)-dione]
EC50 [1]: 32.2 nM
IC50 [2]: 27.2 nM
EC50 [3]: 25.1 nM
IC50 [4]: 8.47 nM

CC1(C)CN(c2cc(-c3c[nH]c(=O)[nH]c3=O)nn3ccnc23)C1 [Example 63, 5-(8-(3,3-dimethylazetidin-1-yl)imidazo[1,2-b]pyridazin-6-yl)pyrimidine-2,4(1H,3H)-dione]
EC50 [1]: 47.4 nM
IC50 [2]: 70.5 nM
EC50 [3]: 34.7 nM
IC50 [4]: 29.1 nM

O=c1[nH]cc(-c2cc(N3CCC(F)(F)CC3)c3nccn3n2)c(=O)[nH]1 [Example 70, 5-[8-(4,4-difluoro-1-piperidyl)imidazo[1,2-b]pyridazin-6-yl]-1H-pyrimidine-2,4-dione]
EC50 [1]: 285 nM
IC50 [2]: 221 nM
EC50 [3]: 240 nM
IC50 [4]: 134 nM

CC1(C)CCN(c2cc(-c3c[nH]c(=O)[nH]c3=O)nn3ccnc23)C1 [Example 72, 5-[8-(3,3-dimethylpyrrolidin-1-yl)imidazo[1,2-b]pyridazin-6-yl]-1H-pyrimidine-2,4-dione]
EC50 [1]: 25.9 nM
IC50 [2]: 26.5 nM
EC50 [3]: 12.4 nM
IC50 [4]: 6.97 nM

O=c1[nH]cc(-c2cc(N3CCC(F)(F)C3)c3nccn3n2)c(=O)[nH]1 [Example 79, 5-[8-(3,3-difluoropyrrolidin-1-yl)imidazo[1,2-b]pyridazin-6-yl]-1H-pyrimidine-2,4-dione]
EC50 [1]: 20.8 nM
IC50 [2]: 25.2 nM
EC50 [3]: 11.7 nM
IC50 [4]: 4.58 nM

O=c1[nH]cc(-c2cc(N3CCCC(F)(F)C3)c3nccn3n2)c(=O)[nH]1 [Example 93, 5-(8-(3,3-difluoropiperidin-1-yl)imidazo[1,2-b]pyridazin-6-yl)pyrimidine-2,4(1H,3H)-dione]
EC50 [1]: 685 nM
IC50 [2]: 522 nM
EC50 [3]: 556 nM
IC50 [4]: > 250 nM

O=c1[nH]cc(-c2cc(N3CC(F)(F)C(F)(F)C3)c3nccn3n2)c(=O)[nH]1 [Example 109, 5-(8-(3,3,4,4-tetrafluoropyrrolidin-1-yl)imidazo[1,2-b]pyridazin-6-yl)pyrimidine-2,4(1H,3H)-dione]
IC50 [2]: 44.5 nM
EC50 [3]: 13 nM
IC50 [4]: 2.97 nM
